Experimental findings from US20220347175A1, “PYRIDAZINONE DERIVATIVE” (Sumitomo Dainippon Pharma Co., Ltd., priority 2018, published 2022) are described below.

T2 sequence (Q14524 1-2015 isoform Q14524-2): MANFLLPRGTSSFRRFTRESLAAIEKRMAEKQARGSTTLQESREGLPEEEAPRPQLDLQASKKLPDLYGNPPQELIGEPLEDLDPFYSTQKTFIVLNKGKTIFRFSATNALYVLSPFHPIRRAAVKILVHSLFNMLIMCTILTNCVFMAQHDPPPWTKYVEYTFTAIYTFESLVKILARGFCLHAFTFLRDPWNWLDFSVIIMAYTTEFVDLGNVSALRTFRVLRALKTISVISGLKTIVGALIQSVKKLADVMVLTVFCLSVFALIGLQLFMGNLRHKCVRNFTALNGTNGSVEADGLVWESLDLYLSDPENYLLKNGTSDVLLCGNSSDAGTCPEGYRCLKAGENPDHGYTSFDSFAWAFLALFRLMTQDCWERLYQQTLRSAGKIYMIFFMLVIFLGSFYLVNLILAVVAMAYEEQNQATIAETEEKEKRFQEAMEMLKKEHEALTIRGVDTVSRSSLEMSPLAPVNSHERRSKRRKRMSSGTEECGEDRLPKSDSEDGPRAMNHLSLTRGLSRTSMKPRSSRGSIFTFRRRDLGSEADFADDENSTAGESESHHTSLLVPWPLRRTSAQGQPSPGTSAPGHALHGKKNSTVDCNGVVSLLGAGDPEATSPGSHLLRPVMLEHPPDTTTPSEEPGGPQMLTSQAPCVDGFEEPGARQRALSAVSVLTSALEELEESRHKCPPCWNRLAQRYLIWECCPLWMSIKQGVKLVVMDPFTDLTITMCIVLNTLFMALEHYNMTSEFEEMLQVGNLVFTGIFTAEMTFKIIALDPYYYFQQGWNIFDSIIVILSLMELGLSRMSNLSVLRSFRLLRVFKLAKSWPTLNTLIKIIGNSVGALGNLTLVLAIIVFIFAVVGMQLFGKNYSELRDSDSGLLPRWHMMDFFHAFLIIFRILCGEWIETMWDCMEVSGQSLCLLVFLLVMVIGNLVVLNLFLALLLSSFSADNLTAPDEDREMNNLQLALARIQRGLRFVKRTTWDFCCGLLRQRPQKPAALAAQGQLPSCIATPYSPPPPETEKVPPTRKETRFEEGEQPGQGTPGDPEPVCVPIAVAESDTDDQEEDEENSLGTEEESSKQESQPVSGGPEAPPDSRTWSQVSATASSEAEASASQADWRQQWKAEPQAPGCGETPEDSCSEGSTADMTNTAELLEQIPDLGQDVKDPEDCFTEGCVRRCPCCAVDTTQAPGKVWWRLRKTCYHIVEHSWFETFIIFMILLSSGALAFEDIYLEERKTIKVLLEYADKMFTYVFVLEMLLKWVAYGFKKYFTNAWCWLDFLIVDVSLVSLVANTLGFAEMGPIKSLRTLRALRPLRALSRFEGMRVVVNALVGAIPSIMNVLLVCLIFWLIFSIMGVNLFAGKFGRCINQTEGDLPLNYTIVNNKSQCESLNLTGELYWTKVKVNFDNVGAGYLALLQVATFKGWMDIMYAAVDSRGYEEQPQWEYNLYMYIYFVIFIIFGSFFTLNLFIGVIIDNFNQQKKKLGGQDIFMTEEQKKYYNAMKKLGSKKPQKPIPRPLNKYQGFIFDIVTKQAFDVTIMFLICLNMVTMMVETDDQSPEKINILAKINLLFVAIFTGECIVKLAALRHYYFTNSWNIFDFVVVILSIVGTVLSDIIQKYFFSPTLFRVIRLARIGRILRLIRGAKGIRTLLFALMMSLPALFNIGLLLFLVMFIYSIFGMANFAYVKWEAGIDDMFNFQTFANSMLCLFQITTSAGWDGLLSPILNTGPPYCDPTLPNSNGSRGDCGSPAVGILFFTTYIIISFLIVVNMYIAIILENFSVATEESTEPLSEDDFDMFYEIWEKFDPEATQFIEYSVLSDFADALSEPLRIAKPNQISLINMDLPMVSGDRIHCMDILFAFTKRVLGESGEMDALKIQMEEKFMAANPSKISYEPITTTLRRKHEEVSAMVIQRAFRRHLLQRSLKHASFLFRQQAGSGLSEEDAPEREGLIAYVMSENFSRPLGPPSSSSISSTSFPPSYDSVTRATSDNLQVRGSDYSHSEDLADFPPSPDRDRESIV

The first assay addresses T1, human Nav1.1 (Homo sapiens, UniProt P35498).
T1 construct: host or cells: HEK293
The assay can be described thus: Amplification of Nav1.1-derived voltage-dependent sodium current (Nav1.1 current), cell line stably expressing human Nav1.1, automated patch clamp. In kind it is cell-based. The settings on record: 10 μmol/L compound (Test Result 5); read-out: Nav1.1 current amplification rate (%). The procedure, abridged:
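Amplification rate (%) is 100 × post-compound/pre-compound Nav1.1 peak current or AUC, minus 100. Ramp-evoked sodium currents were recorded by automated patch clamp in a human Nav1.1 HEK293 stable line, restricted to cells exceeding 500 pA, with compounds added in extracellular solution containing 1% DMSO.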
(In general: In patch-clamp work, channel activity is measured electrically.)
As for `N#Cc1ccsc1-c1ccc(=O)n(CC(=O)Nc2ccn3ncnc3c2)n1` [Example 498], the activation at 10 µM was 24%.

In the case of `CC1(C)C=C(c2ccc(=O)n(CC(=O)Nc3ccc(C#N)cc3)n2)CCO1` [Example 507], the activation at 10 µM was 10%.

`O=C(Cn1nc(C2=CCCCO2)ccc1=O)N1CCc2c(-c3ccnnc3)cccc21` [Example 525]: the activation at 10 µM is 18%.

Regarding `CC1CC=C(c2ccc(=O)n(CC(=O)NC3CCn4ccnc4C3)n2)CC1` (stereo not shown) [Example 533], the activation at 10 µM worked out at 22%.

Turning to `CC1(C)CC=C(c2ccc(=O)n(CC(=O)NC3CCn4ccnc4C3)n2)CC1` (stereo not shown) [Example 534], the activation at 10 µM was 7%.

Staying with this assay, now noted: 10 μmol/L compound; change of the area under the curve of Nav1.1 current (Test Result 1).
For `CC1CCC(c2ccc(=O)n(CC(=O)N3CCc4c(N5CCOCC5)cccc43)n2)CC1` (mixture of isomers) [Example 472], the “Nav1.1 current amplification rate (%)” value was 387%.

For `COc1nc2cc(NC(=O)Cn3nc(C4=CCC(C)CC4)ccc3=O)ccc2o1` (racemic) [Example 239], the “Nav1.1 current amplification rate (%)” value was determined as 310%.

For `Cc1noc2cc(NC(=O)Cn3nc(C4=CCC(C)CC4)ccc3=O)ccc12` (racemic) [Example 240], the “Nav1.1 current amplification rate (%)” value was 241%.

Turning to `CC1CC=C(c2ccc(=O)n(CC(=O)Nc3cc(F)c4ocnc4c3)n2)CC1` (racemic) [Example 241], the “Nav1.1 current amplification rate (%)” value was found to be 260%.

In the case of `CC1CC=C(c2ccc(=O)n(CC(=O)Nc3ccn4ccnc4n3)n2)CC1` (racemic) [Example 242], the “Nav1.1 current amplification rate (%)” value is 97%.

Take `CC1CC=C(c2ccc(=O)n(CC(=O)Nc3ccc4oc(C(F)F)nc4c3)n2)CC1` (racemic) [Example 243]: the “Nav1.1 current amplification rate (%)” value is 276%.

Staying with this assay, now noted: Concentration 1 μM (Test Result 7); read-out: Nav1.1 current amplification rate (%).
In the case of `COc1cc(=O)n(CC(=O)Nc2ccc3cncnc3c2)nc1C1=CCC(C)(C)CC1` [Example 541], the activation at 1 µM stood at 325%.

For `CC1CC=C(c2ccc(=O)n(CC(=O)Nc3ccc4cccnc4c3)n2)CC1` (stereo not shown) [Example 543], the activation at 1 µM was found to be 154%.

Take `CC1CC=C(c2ccc(=O)n(CC(=O)Nc3ccc4ccncc4c3)n2)CC1` (stereo not shown) [Example 544]: the activation at 1 µM was 208%.

As for `CC1CC=C(c2ccc(=O)n(CC(=O)Nc3ccc4cnccc4c3)n2)CC1` (stereo not shown) [Example 545], the activation at 1 µM turned out to be 223%.

As to `CC1CC=C(c2ccc(=O)n(CC(=O)Nc3ccc4ncccc4c3)n2)CC1` (stereo not shown) [Example 546], the activation at 1 µM was 59%.

Turning to `CC1CC=C(c2ccc(=O)n(CC(=O)Nc3ccc(C#N)cc3F)n2)CC1` (stereo not shown) [Example 547], the activation at 1 µM was 70%.

Regarding `CC1CC=C(c2ccc(=O)n(CC(=O)Nc3cnc4ccccc4n3)n2)CC1` (stereo not shown) [Example 548], the activation at 1 µM is 41%.

Consider `CC1CC=C(c2ccc(=O)n(CC(=O)Nc3cccc(N4CCOCC4)c3)n2)CC1` (stereo not shown) [Example 549], for which the activation at 1 µM was 33%.

With `CC1CC=C(c2ccc(=O)n(CC(=O)Nc3ccc4c(O)ncnc4c3)n2)CC1` (stereo not shown) [Example 550], the activation at 1 µM was 31%.

With `CC1CC=C(c2ccc(=O)n(CC(=O)Nc3ccn4ncnc4c3F)n2)CC1` (stereo not shown) [Example 552], the activation at 1 µM came out at 24%.

`O=C(Cn1nc(N2CCC3(CCC3)CC2)ccc1=O)Nc1ccc2cncnc2c1` [Example 553]: the activation at 1 µM turned out to be 155%.

Regarding `CCC1CC=C(c2ccc(=O)n(CC(=O)Nc3ccn4ncnc4c3)n2)CC1` (stereo not shown) [Example 554], the activation at 1 µM turned out to be 115%.

With `CCC1CC=C(c2ccc(=O)n(CC(=O)Nc3ccc4ncnn4c3)n2)CC1` (stereo not shown) [Example 555], the activation at 1 µM worked out at 80%.

`CN(c1ccc(=O)n(CC(=O)Nc2ccn3ncnc3c2)n1)C1CCCC1` [Example 556]: the activation at 1 µM turned out to be 13%.

Consider `O=C(Cn1nc(N2CCC3(CC3)C(F)(F)C2)ccc1=O)Nc1ccn2ncnc2c1` [Example 557], for which the activation at 1 µM was 17%.

As for `N#Cc1ccc(NC(=O)Cn2nc(N3CCC4(CC4)C(F)(F)C3)ccc2=O)cn1` [Example 560], the activation at 1 µM amounted to 12%.

In the case of `CN(c1ccc(=O)n(CC(=O)Nc2ccc(C#N)nc2)n1)C1CCCC1` [Example 561], the activation at 1 µM was 17%.

In the case of `CN(c1ccc(=O)n(CC(=O)N2CCc3c(-c4ccnnc4)cccc32)n1)C1CCCC1` [Example 562], the activation at 1 µM worked out at 247%.

For the compound `CN(c1ccc(=O)n(CC(=O)Nc2ccc3cnccc3c2)n1)C1CCCC1` [Example 563], the activation at 1 µM worked out at 50%.

In the case of `CN(c1ccc(=O)n(CC(=O)N2CCc3c(N4CCOCC4)cccc32)n1)C1CCCC1` [Example 565], the activation at 1 µM worked out at 62%.

Regarding `Cc1ccc(-c2ccc(=O)n(CC(=O)Nc3ccn4ncnc4c3)n2)c(F)c1` [Example 566], the activation at 1 µM stood at 98%.

Consider `CN(CC1(C)CC1)c1ccc(=O)n(CC(=O)N2CCc3c(N4CCOCC4)cccc32)n1` [Example 568], for which the activation at 1 µM amounted to 42%.

As for `CN(c1ccc(=O)n(CC(=O)N2CCc3c(N4CCOCC4)cccc32)n1)C1CC2(CC2)C1` [Example 570], the activation at 1 µM amounted to 99%.

Still in this assay, the particulars now being: Concentration 10 μM (Test Result 7); read-out: Nav1.1 current amplification rate (%).
In the case of `CC1CC=C(c2ccc(=O)n(CC(=O)Nc3ncc4ccccc4n3)n2)CC1` (stereo not shown) [Example 551], the activation at 10 µM was 16%.

With `CN(c1ccc(=O)n(CC(=O)Nc2ccn3ncnc3c2)n1)C1CC1` [Example 558], the activation at 10 µM amounted to 11%.

With `CN(CC1CC1)c1ccc(=O)n(CC(=O)Nc2ccn3ncnc3c2)n1` [Example 559], the activation at 10 µM was 34%.

Turning to `CN(c1ccc(=O)n(CC(=O)Nc2cnc3cccnc3c2)n1)C1CCCC1` [Example 564], the activation at 10 µM was 73%.

For the compound `COc1cc(C)cc(F)c1-c1ccc(=O)n(CC(=O)Nc2ccn3ncnc3c2)n1` [Example 571], the activation at 10 µM is 24%.

The same assay, now with this note: Concentration 50 μM (Test Result 7); read-out: Nav1.1 current amplification rate (%).
Turning to `CN(CC1(C)CC1)c1ccc(=O)n(CC(=O)Nc2ccc3cnccc3c2)n1` [Example 567], the activation at 50 µM came to 281%.

On to `CN(c1ccc(=O)n(CC(=O)Nc2ccc3cnccc3c2)n1)C1CC2(CC2)C1` [Example 569], for which the activation at 50 µM was 393%.

The assay is the same for the next values; noted with them: compound 1 μmol/L; HEK293 stably expressing human Nav1.1.
As to `CC1CC=C(c2ccc(=O)n(CC(=O)N3CCc4c(CN5CC6CC5CO6)cccc43)n2)CC1` (mixture of isomers) [Example 278], the “Nav1.1 current amplification rate (%)” value is recorded as 204%.

`CC1CC=C(c2ccc(=O)n(CC(=O)N3CCc4c(N5CCOCC5)cccc43)n2)CC1` (racemic) [Example 245]: the “Nav1.1 current amplification rate (%)” value stood at 393%.

The same assay, now with this note: compound 3 μmol/L; HEK293 stably expressing human Nav1.1.
With `CC1CC=C(c2ccc(=O)n(CC(=O)N3CCc4c(C5CCNC5)cccc43)n2)CC1` (mixture of isomers) [Example 268], the “Nav1.1 current amplification rate (%)” value is recorded as 55%.

Consider `CC1CC=C(c2ccc(=O)n(CC(=O)N3CCc4c(C5CCN(C)C5)cccc43)n2)CC1` (mixture of isomers) [Example 269], for which the “Nav1.1 current amplification rate (%)” value came to 127%.

Still in this assay, the particulars now being: compound 50 μmol/L; HEK293 stably expressing human Nav1.1; read-out: Nav1.1 current amplification rate (%).
In the case of `Cc1cc(=O)n(CC(=O)Nc2ccn3cnnc3c2)nc1C1=CCC(C)(C)CC1` [Example 505], the activation at 50 µM came to 255%.

Take `CC1(C)CC(c2ccc(=O)n(CC(=O)Nc3ccc(C#N)cc3)n2)=CCO1` [Example 506]: the activation at 50 µM amounted to 10%.

In the case of `Cc1ccc(Oc2ccc(=O)n(CC(=O)Nc3ccn4ncnc4c3)n2)cc1` [Example 530], the activation at 50 µM stood at 9%.

The same assay, now with this note: concentration of each compound 1 μmol/L (Test Result 6); read-out: Nav1.1 current amplification rate (%).
Regarding `COc1cc(=O)n(CC(=O)Nc2ccn3ncnc3c2)nc1C1=CCC(C)(C)CC1` [Example 499], the activation at 1 µM is 50%.

In the case of `COc1cc(=O)n(CC(=O)Nc2ccc3oc(N(C)C)nc3c2)nc1C1=CCC(C)(C)CC1` [Example 500], the activation at 1 µM was 14%.

For `Cc1cc(=O)n(CC(=O)Nc2ccc3ncnn3c2)nc1C1=CCC(C)CC1` (stereo not shown) [Example 501], the activation at 1 µM was 33%.

With `Cc1cc(=O)n(CC(=O)Nc2ccc3oc(N(C)C)nc3c2)nc1C1=CCC(C)(C)CC1` [Example 504], the activation at 1 µM was found to be 27%.

`O=C(Cn1nc(C2=CCCCC2)ccc1=O)N1CCc2c(CN3CCOCC3)cccc21` [Example 519]: the activation at 1 µM was found to be 135%.

Consider `Cc1ccc(Oc2ccc(=O)n(CC(=O)N3CCc4c(-c5ccnnc5)cccc43)n2)cc1` [Example 529], for which the activation at 1 µM amounted to 43%.

The next assay has as its target T2, human Nav1.5 (Homo sapiens, UniProt Q14524).
T2 construct: expressed in transfected cells; host or cells: CHO-K1 (T-REx System, ThermoFisher Scientific)
The assay can be described thus: Amplification of Nav1.5-derived voltage-dependent sodium current (Nav1.5 current), cell line stably expressing human Nav1.5, automated patch clamp. The assay is classed as cell-based. The settings on record: 10 μmol/L compound; change of the area under the curve of Nav1.5 current (Test Result 1). As for the experimental part: Test 2: Evaluation of the Amplification in Nav1.5-Derived Voltage-Dependent Sodium Current (Nav1.5 Current) by Using a Cell Line Stably Expressing Human Nav1.5
A CHO-K1 cell line (Chinese hamster ovary) stably expressing human Nav1.5 (Gene Bank Accession No: P000326.2) was obtained by using purchased T-Rex System (ThermoFisher Scientific, USA), and used for the present test. The effect of test compounds on the amplification of Nav1.5 current was evaluated by using a cell line stably expressing human Nav1.5 and HTS automated patch clamp system, similarly in the method using Nav1.1. In other words, test compounds were added in an extracellular fluid which contained 1% DMSO and 500 nmol/L Tetrodotoxin (TTX), and evaluated as a change of the peak value of Nav1.5 current and the area under the curve (AUC). The induction and the measurement of Nav1.5 current, the pharmacologic effect on Nav1.5 current, and a method for pharmacological evaluation were carried out by the same method as in Nav1.1.
Consider `CC1CCC(c2ccc(=O)n(CC(=O)N3CCc4c(N5CCOCC5)cccc43)n2)CC1` (mixture of isomers) [Example 472], for which the “Nav1.5 current amplification rate (%)” value is reported as 56%.

On to `COc1nc2cc(NC(=O)Cn3nc(C4=CCC(C)CC4)ccc3=O)ccc2o1` (racemic) [Example 239], for which the “Nav1.5 current amplification rate (%)” value is 31%.

`Cc1noc2cc(NC(=O)Cn3nc(C4=CCC(C)CC4)ccc3=O)ccc12` (racemic) [Example 240]: the “Nav1.5 current amplification rate (%)” value was 174%.

In the case of `CC1CC=C(c2ccc(=O)n(CC(=O)Nc3cc(F)c4ocnc4c3)n2)CC1` (racemic) [Example 241], the “Nav1.5 current amplification rate (%)” value is recorded as 26%.

`CC1CC=C(c2ccc(=O)n(CC(=O)Nc3ccn4ccnc4n3)n2)CC1` (racemic) [Example 242]: the “Nav1.5 current amplification rate (%)” value turned out to be 10%.

As to `CC1CC=C(c2ccc(=O)n(CC(=O)Nc3ccc4oc(C(F)F)nc4c3)n2)CC1` (racemic) [Example 243], the “Nav1.5 current amplification rate (%)” value was determined as 19%.

Staying with this assay, now noted: compound 1 μmol/L; CHO-K1 stably expressing human Nav1.5.
With `CC1CC=C(c2ccc(=O)n(CC(=O)N3CCc4c(CN5CC6CC5CO6)cccc43)n2)CC1` (mixture of isomers) [Example 278], the “Nav1.5 current amplification rate (%)” value was found to be 27%.

On to `CC1CC=C(c2ccc(=O)n(CC(=O)N3CCc4c(N5CCOCC5)cccc43)n2)CC1` (racemic) [Example 245], for which the “Nav1.5 current amplification rate (%)” value is 32%.

The assay is the same for the next values; noted with them: compound 3 μmol/L; CHO-K1 stably expressing human Nav1.5.
With `CC1CC=C(c2ccc(=O)n(CC(=O)N3CCc4c(C5CCNC5)cccc43)n2)CC1` (mixture of isomers) [Example 268], the “Nav1.5 current amplification rate (%)” value turned out to be 22%.

On to `CC1CC=C(c2ccc(=O)n(CC(=O)N3CCc4c(C5CCN(C)C5)cccc43)n2)CC1` (mixture of isomers) [Example 269], for which the “Nav1.5 current amplification rate (%)” value was determined as 266%.
